Test results reported in the kinase profiling compilation of Christmann-Franck et al. (2016).
Values belong to the compound of their own block, whether it stands above or below them.

Tests used:
Test in all cases: radiometric filter-binding kinase assay
[1] = target: AURKA (human) (UniProt O14965)
[2] = target: AURKB (human) (UniProt Q96GD4)
[3] = target: BRSK1 (human) (UniProt Q8TDC3)
[4] = target: BTK (human) (UniProt Q06187)
[5] = target: CDK2 CCNA2 (human) (UniProt P20248+P24941)
[6] = target: CHEK1 (human) (UniProt O14757)
[7] = target: CSNK2A1 (human) (UniProt P68400)
[8] = target: DYRK2 (human) (UniProt Q92630)
[9] = target: EEF2K (human) (UniProt O00418)
[10] = target: EPHA2 (human) (UniProt P29317)
Sequence of EPHA2 (human) (P29317 whole entry, looked up): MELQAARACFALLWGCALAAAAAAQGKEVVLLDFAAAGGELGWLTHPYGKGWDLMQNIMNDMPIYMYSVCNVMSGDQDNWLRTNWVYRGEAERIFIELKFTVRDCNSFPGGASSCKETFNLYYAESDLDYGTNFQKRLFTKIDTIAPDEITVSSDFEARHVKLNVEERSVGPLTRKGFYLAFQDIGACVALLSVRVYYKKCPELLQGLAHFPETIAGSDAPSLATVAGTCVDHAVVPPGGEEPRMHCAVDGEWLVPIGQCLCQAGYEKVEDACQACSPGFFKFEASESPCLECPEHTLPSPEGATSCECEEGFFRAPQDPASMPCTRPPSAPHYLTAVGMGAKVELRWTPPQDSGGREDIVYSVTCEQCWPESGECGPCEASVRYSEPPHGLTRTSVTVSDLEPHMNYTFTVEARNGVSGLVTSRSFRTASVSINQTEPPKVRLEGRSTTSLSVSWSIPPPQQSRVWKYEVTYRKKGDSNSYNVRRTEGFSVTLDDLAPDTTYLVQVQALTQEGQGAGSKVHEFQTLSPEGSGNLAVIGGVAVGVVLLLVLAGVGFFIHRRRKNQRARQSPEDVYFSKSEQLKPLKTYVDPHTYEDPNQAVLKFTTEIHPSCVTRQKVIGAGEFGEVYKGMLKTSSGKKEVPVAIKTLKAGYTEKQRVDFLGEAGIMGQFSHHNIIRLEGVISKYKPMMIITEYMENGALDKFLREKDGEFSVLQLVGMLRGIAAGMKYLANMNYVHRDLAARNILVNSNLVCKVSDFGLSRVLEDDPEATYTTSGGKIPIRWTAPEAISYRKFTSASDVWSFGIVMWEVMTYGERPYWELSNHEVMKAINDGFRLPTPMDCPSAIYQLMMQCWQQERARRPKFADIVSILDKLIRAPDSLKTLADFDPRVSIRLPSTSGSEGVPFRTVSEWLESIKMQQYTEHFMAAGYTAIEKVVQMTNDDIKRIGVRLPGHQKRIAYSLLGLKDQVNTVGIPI

[11] = target: ERBB4 (human) (UniProt Q15303)
Sequence of ERBB4 (human) (Q15303 whole entry, looked up): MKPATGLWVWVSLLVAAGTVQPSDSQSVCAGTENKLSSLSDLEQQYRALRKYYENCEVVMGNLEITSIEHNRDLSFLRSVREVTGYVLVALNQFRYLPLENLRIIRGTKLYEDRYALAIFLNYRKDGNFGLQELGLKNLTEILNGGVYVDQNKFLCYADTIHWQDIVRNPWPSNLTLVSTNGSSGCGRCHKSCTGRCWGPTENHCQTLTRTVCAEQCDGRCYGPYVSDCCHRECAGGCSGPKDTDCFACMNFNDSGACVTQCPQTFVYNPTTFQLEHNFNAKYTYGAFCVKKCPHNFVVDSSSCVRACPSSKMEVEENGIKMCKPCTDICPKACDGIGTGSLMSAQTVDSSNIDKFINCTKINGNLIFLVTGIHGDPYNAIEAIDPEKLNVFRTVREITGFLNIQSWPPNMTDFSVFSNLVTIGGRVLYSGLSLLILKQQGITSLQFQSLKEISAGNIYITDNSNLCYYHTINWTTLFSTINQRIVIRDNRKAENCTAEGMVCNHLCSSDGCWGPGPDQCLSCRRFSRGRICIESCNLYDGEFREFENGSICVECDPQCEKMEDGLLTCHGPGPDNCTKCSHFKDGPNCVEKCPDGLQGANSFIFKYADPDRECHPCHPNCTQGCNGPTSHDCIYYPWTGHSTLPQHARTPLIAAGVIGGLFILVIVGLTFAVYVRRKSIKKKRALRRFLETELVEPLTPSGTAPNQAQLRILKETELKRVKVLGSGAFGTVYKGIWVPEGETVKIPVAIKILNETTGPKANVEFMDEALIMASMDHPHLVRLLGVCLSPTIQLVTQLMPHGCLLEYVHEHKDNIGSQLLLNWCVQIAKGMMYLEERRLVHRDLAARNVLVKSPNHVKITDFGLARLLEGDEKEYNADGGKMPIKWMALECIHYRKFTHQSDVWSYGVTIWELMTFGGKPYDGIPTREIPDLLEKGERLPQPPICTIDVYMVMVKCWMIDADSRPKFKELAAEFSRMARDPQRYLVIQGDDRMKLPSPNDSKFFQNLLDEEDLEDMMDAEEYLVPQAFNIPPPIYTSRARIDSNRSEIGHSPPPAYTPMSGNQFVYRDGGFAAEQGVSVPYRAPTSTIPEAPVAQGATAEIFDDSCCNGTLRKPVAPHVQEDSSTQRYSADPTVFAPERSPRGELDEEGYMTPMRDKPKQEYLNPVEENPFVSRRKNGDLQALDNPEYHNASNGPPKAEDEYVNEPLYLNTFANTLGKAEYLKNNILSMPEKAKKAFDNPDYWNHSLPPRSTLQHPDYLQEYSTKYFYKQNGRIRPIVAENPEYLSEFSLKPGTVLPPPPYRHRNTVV

[12] = target: FGFR1 (human) (UniProt P11362)
[13] = target: FLT1 (human) (UniProt P17948)
Sequence of FLT1 (human) (P17948 whole entry, looked up): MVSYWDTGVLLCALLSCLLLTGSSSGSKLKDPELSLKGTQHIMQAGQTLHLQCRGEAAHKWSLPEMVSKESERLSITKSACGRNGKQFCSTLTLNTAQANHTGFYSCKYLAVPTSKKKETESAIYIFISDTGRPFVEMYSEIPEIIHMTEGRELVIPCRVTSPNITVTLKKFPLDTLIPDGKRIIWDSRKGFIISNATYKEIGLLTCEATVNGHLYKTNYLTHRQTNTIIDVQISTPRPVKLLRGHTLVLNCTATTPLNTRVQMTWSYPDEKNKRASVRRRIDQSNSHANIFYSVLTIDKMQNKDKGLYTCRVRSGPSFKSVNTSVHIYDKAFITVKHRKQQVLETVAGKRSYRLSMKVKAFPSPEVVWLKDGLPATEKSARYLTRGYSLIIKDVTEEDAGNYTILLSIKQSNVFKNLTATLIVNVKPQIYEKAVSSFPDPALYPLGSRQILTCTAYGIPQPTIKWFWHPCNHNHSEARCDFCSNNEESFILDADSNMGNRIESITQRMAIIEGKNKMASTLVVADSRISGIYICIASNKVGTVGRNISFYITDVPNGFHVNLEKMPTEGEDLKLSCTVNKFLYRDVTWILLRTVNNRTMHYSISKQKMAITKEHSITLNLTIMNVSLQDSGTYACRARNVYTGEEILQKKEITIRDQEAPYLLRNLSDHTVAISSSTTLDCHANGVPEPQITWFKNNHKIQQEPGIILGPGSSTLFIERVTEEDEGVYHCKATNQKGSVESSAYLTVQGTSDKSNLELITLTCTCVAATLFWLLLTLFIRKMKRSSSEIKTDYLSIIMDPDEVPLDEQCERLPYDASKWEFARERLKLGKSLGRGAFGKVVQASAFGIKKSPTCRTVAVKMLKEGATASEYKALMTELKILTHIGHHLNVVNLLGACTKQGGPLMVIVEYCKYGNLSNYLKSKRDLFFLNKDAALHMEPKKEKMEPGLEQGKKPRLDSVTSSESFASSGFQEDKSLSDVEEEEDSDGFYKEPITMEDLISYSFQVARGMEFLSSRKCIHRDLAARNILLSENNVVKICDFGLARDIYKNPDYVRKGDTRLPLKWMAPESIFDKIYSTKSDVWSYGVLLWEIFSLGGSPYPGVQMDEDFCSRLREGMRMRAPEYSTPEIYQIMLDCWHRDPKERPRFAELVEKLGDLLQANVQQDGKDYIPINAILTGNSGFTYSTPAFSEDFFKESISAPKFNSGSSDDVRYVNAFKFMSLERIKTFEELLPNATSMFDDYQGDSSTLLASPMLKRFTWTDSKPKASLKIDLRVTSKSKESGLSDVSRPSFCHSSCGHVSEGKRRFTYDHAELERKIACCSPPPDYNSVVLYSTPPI

[14] = target: GCK (human) (UniProt Q12851)
Sequence of GCK (human) (Q12851 whole entry, looked up): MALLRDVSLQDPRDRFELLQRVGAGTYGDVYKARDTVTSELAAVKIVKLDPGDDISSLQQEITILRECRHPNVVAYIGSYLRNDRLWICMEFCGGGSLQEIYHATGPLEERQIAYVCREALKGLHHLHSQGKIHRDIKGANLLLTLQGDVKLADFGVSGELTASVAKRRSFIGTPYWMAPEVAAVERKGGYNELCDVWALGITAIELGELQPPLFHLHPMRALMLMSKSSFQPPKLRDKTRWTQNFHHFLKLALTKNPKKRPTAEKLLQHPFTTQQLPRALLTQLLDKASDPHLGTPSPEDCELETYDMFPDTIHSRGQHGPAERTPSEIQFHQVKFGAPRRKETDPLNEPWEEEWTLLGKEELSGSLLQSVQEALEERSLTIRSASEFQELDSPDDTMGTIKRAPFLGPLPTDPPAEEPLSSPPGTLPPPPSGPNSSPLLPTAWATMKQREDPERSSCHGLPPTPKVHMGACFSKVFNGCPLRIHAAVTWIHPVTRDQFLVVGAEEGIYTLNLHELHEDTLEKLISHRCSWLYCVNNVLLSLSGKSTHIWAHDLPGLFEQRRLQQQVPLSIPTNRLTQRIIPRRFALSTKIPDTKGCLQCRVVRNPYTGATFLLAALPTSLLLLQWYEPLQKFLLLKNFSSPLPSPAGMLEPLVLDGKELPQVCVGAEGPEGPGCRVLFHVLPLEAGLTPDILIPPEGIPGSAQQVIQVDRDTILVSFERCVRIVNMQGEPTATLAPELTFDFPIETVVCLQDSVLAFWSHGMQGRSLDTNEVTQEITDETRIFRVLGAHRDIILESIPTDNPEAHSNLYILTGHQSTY

[15] = target: INSRR (human) (UniProt P14616)
[16] = target: MAP2K2 (human) (UniProt P36507)
[17] = target: MAP2K6 (human) (UniProt P52564)
[18] = target: MAPK10 (human) (UniProt P53779)
[19] = target: MAPK12 (human) (UniProt P53778)
[20] = target: MAPK15 (human) (UniProt Q8TD08)
[21] = target: MAPKAPK3 (human) (UniProt Q16644)
[22] = target: MAPKAPK5 (human) (UniProt Q8IW41)
[23] = target: MELK (human) (UniProt Q14680)
[24] = target: MINK1 (human) (UniProt Q8N4C8)
[25] = target: MST4 (human) (UniProt Q9P289)
[26] = test system: PAK2 (human), Q13177 [T402E]
[27] = target: PHKG1 (human) (UniProt Q16816)
[28] = target: PIM2 (human) (UniProt Q9P1W9)
Sequence of PIM2 (human) (Q9P1W9 whole entry, looked up): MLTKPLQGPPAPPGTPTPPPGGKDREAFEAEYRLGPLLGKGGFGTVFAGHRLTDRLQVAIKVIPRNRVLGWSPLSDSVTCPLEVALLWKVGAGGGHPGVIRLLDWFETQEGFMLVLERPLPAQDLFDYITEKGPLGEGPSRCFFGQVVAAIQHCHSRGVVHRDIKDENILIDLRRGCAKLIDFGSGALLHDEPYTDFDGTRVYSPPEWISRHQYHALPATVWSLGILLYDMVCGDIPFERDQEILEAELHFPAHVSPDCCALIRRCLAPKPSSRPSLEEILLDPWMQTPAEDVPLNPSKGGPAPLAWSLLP

[29] = target: PIM3 (human) (UniProt Q86V86)
[30] = target: PRKACA (human) (UniProt P17612)
[31] = target: PRKCA (human) (UniProt P17252)
[32] = target: RIPK2 (human) (UniProt O43353)
[33] = target: RPS6KA3 KD1 KD2 (human) (UniProt P51812)
[34] = test system: SGK1 (human), O00141 [S422D]
[35] = target: SRPK1 (human) (UniProt Q96SB4)
[36] = target: TAOK1 (human) (UniProt Q7L7X3)

- residual activity ([1]; compound 1.0 µM): 113%
- residual activity ([1]; compound 10.0 µM): 100%
- residual activity ([2]; compound 1.0 µM): 83%
- residual activity ([2]; compound 10.0 µM): 105%
- residual activity ([3]; compound 1.0 µM): 84%
- residual activity ([3]; compound 10.0 µM): 94%
- residual activity ([4]; compound 1.0 µM): 104%
- residual activity ([4]; compound 10.0 µM): 107%
- residual activity ([5]; compound 1.0 µM): 96%
- residual activity ([5]; compound 10.0 µM): 87%
- residual activity ([6]; compound 1.0 µM): 94%
- residual activity ([6]; compound 10.0 µM): 82%
- residual activity ([7]; compound 1.0 µM): 106%
- residual activity ([7]; compound 10.0 µM): 93%
- residual activity ([8]; compound 1.0 µM): 101%
- residual activity ([8]; compound 10.0 µM): 103%
- residual activity ([9]; compound 1.0 µM): 94%
- residual activity ([9]; compound 10.0 µM): 82%
- residual activity ([10]; compound 10.0 µM): 96%
- residual activity ([11]; compound 10.0 µM): 106%
- residual activity ([12]; compound 10.0 µM): 109%
- residual activity ([13]; compound 1.0 µM): 100%
- residual activity ([13]; compound 10.0 µM): 110%
- residual activity ([14]; compound 1.0 µM): 103%
- residual activity ([14]; compound 10.0 µM): 114%
- residual activity ([15]; compound 1.0 µM): 102%
- residual activity ([15]; compound 10.0 µM): 109%
- residual activity ([16]; compound 1.0 µM): 83%
- residual activity ([16]; compound 10.0 µM): 81%
- residual activity ([17]; compound 1.0 µM): 93%
- residual activity ([17]; compound 10.0 µM): 100%
- residual activity ([18]; compound 1.0 µM): 90%
- residual activity ([18]; compound 10.0 µM): 95%
- residual activity ([19]; compound 1.0 µM): 109%
- residual activity ([19]; compound 10.0 µM): 108%
- residual activity ([21]; compound 1.0 µM): 94%
- residual activity ([21]; compound 10.0 µM): 86%
- residual activity ([22]; compound 1.0 µM): 86%
- residual activity ([22]; compound 10.0 µM): 87%
- residual activity ([23]; compound 1.0 µM): 94%
- residual activity ([23]; compound 10.0 µM): 90%
- residual activity ([24]; compound 1.0 µM): 111%
- residual activity ([24]; compound 10.0 µM): 118%
- residual activity ([25]; compound 1.0 µM): 106%
- residual activity ([25]; compound 10.0 µM): 112%
- residual activity ([26]; compound 1.0 µM): 101%
- residual activity ([26]; compound 10.0 µM): 103%
- residual activity ([27]; compound 1.0 µM): 101%
- residual activity ([27]; compound 10.0 µM): 103%
- residual activity ([28]; compound 1.0 µM): 98%
- residual activity ([29]; compound 1.0 µM): 101%
- residual activity ([29]; compound 10.0 µM): 103%
- residual activity ([30]; compound 1.0 µM): 101%
- residual activity ([30]; compound 10.0 µM): 84%
- residual activity ([31]; compound 1.0 µM): 107%
- residual activity ([31]; compound 10.0 µM): 100%
- residual activity ([32]; compound 1.0 µM): 97%
- residual activity ([32]; compound 10.0 µM): 106%
- residual activity ([33]; compound 1.0 µM): 93%
- residual activity ([33]; compound 10.0 µM): 101%
- residual activity ([34]; compound 1.0 µM): 91%
- residual activity ([35]; compound 1.0 µM): 104%
- residual activity ([35]; compound 10.0 µM): 104%
- residual activity ([36]; compound 1.0 µM): 106%
- residual activity ([36]; compound 10.0 µM): 96%
Compound: Nc1cccc2c1CN(C1CCC(=O)NC1=O)C2=O (stereo not drawn)
- residual activity ([20]; compound 1.0 µM): 92%
- residual activity ([20]; compound 10.0 µM): 98%

- residual activity ([1]; compound 0.1 µM): 116%
- residual activity ([1]; compound 1.0 µM): 105%
- residual activity ([1]; compound 10.0 µM): 92%
- residual activity ([2]; compound 0.1 µM): 100%
- residual activity ([2]; compound 1.0 µM): 102%
- residual activity ([2]; compound 10.0 µM): 93%
- residual activity ([3]; compound 0.1 µM): 114%
- residual activity ([3]; compound 1.0 µM): 111%
- residual activity ([3]; compound 10.0 µM): 97%
- residual activity ([4]; compound 1.0 µM): 103%
- residual activity ([4]; compound 10.0 µM): 103%
- residual activity ([5]; compound 0.1 µM): 98%
- residual activity ([5]; compound 1.0 µM): 79%
- residual activity ([5]; compound 10.0 µM): 88%
- residual activity ([6]; compound 0.1 µM): 96%
- residual activity ([6]; compound 1.0 µM): 92%
- residual activity ([6]; compound 10.0 µM): 86%
- residual activity ([7]; compound 0.1 µM): 78%
- residual activity ([7]; compound 1.0 µM): 87%
- residual activity ([7]; compound 10.0 µM): 83%
- residual activity ([8]; compound 0.1 µM): 116%
- residual activity ([8]; compound 1.0 µM): 124%
- residual activity ([8]; compound 10.0 µM): 119%
- residual activity ([9]; compound 0.1 µM): 93%
- residual activity ([9]; compound 1.0 µM): 76%
- residual activity ([9]; compound 10.0 µM): 69%
- residual activity ([10]; compound 0.1 µM): 103%
- residual activity ([10]; compound 1.0 µM): 91%
- residual activity ([10]; compound 10.0 µM): 91%
- residual activity ([11]; compound 0.1 µM): 127%
- residual activity ([11]; compound 10.0 µM): 105%
- residual activity ([12]; compound 0.1 µM): 115%
- residual activity ([12]; compound 1.0 µM): 111%
- residual activity ([12]; compound 10.0 µM): 104%
- residual activity ([13]; compound 0.1 µM): 95%
- residual activity ([13]; compound 1.0 µM): 81%
- residual activity ([13]; compound 10.0 µM): 83%
- residual activity ([14]; compound 0.1 µM): 86%
- residual activity ([14]; compound 1.0 µM): 72%
- residual activity ([14]; compound 10.0 µM): 71%
- residual activity ([15]; compound 0.1 µM): 99%
- residual activity ([15]; compound 1.0 µM): 94%
- residual activity ([15]; compound 10.0 µM): 100%
- residual activity ([16]; compound 0.1 µM): 104%
- residual activity ([16]; compound 1.0 µM): 103%
- residual activity ([16]; compound 10.0 µM): 109%
- residual activity ([17]; compound 0.1 µM): 102%
- residual activity ([17]; compound 1.0 µM): 98%
- residual activity ([17]; compound 10.0 µM): 99%
- residual activity ([18]; compound 0.1 µM): 93%
- residual activity ([18]; compound 1.0 µM): 103%
- residual activity ([18]; compound 10.0 µM): 98%
- residual activity ([19]; compound 0.1 µM): 93%
- residual activity ([19]; compound 1.0 µM): 80%
- residual activity ([19]; compound 10.0 µM): 87%
- residual activity ([21]; compound 0.1 µM): 115%
- residual activity ([21]; compound 1.0 µM): 119%
- residual activity ([21]; compound 10.0 µM): 123%
- residual activity ([22]; compound 0.1 µM): 89%
- residual activity ([22]; compound 1.0 µM): 99%
- residual activity ([22]; compound 10.0 µM): 90%
- residual activity ([23]; compound 0.1 µM): 108%
- residual activity ([23]; compound 1.0 µM): 99%
- residual activity ([23]; compound 10.0 µM): 98%
- residual activity ([24]; compound 0.1 µM): 107%
- residual activity ([24]; compound 1.0 µM): 93%
- residual activity ([24]; compound 10.0 µM): 111%
- residual activity ([25]; compound 0.1 µM): 116%
- residual activity ([25]; compound 1.0 µM): 96%
- residual activity ([25]; compound 10.0 µM): 108%
- residual activity ([26]; compound 0.1 µM): 113%
- residual activity ([26]; compound 1.0 µM): 103%
- residual activity ([26]; compound 10.0 µM): 113%
- residual activity ([27]; compound 0.1 µM): 99%
- residual activity ([27]; compound 1.0 µM): 86%
- residual activity ([27]; compound 10.0 µM): 76%
- residual activity ([28]; compound 0.1 µM): 103%
- residual activity ([28]; compound 1.0 µM): 109%
- residual activity ([28]; compound 10.0 µM): 97%
- residual activity ([29]; compound 0.1 µM): 118%
- residual activity ([29]; compound 1.0 µM): 121%
- residual activity ([29]; compound 10.0 µM): 107%
- residual activity ([30]; compound 0.1 µM): 110%
- residual activity ([30]; compound 1.0 µM): 106%
- residual activity ([30]; compound 10.0 µM): 107%
- residual activity ([31]; compound 0.1 µM): 96%
- residual activity ([31]; compound 1.0 µM): 88%
- residual activity ([31]; compound 10.0 µM): 89%
- residual activity ([32]; compound 0.1 µM): 119%
- residual activity ([32]; compound 1.0 µM): 95%
- residual activity ([32]; compound 10.0 µM): 100%
- residual activity ([33]; compound 0.1 µM): 87%
- residual activity ([33]; compound 1.0 µM): 95%
- residual activity ([33]; compound 10.0 µM): 81%
- residual activity ([34]; compound 0.1 µM): 83%
- residual activity ([34]; compound 1.0 µM): 87%
- residual activity ([34]; compound 10.0 µM): 78%
- residual activity ([35]; compound 0.1 µM): 92%
- residual activity ([35]; compound 1.0 µM): 89%
- residual activity ([35]; compound 10.0 µM): 83%
- residual activity ([36]; compound 0.1 µM): 102%
- residual activity ([36]; compound 1.0 µM): 108%
- residual activity ([36]; compound 10.0 µM): 91%
Compound: CCCCCc1ccc(/C=C/[C@H](O)[C@@H](CO)NC)cc1
- residual activity ([20]; compound 0.1 µM): 82%
- residual activity ([20]; compound 1.0 µM): 86%
- residual activity ([20]; compound 10.0 µM): 77%
